Measured values as given in patent US20250304620A1, “ANTIMICROBIAL PEPTIDE AND APPLICATION THEREOF” (priority 2023, published 2025).
Read-outs that look alike come from different tables or passages of the source. Marks after values point to notes of the source that are not given here. Non-standard residues stand in square brackets, D forms with d. PEG200 = polyethylene glycol 200, conjugated to the C-terminus; PEG500 = polyethylene glycol 500, conjugated to the C-terminus; 2Nal = N[C@@H](Cc1ccc2ccccc2c1)C(=O)O; PEG1000 = polyethylene glycol 1000

How the values were obtained:
[1] = tested on: Methicillin-resistant Staphylococcus aureus (MRSA); assay type: in vivo, ICR mice; settings: 0.1 mL twice a day for 4 days, mouse back skin infection
Method: (§1) Both female and male ICR mice were used in the test, half of the female and male mice were taken and randomly assigned into groups, with 10 mice in each group, and kept in separate cages. The mice were divided into a blank group, a model group, a positive control Methicillin group, and topical formulation groups of AMPs LV-1 to LV-30. Suspensions of Methicillin-sensitive Staphylococcus aureus (NRS 384) and Methicillin-resistant Staphylococcus aureus (MRSA) were prepared, and their concentrations were adjusted to a concentration of 5×10^6 CFU/mL for subsequent use. Hair on backs of the mice was shaved with a shaver, wound was created on back skin of each mouse using a biopsy punch, and the wound was then infected with Methicillin-sensitive Staphylococcus aureus and Methicillin-resistant Staphylococcus aureus (0.1 mL, 5×10^6 CFU/mL) to establish infection models. Except for the blank group and the model group, all other groups received corresponding topical formulations applied directly to the infected areas, with a dose of 0.1 mL, twice a day for 4 consecutive days. On the day following the final administration, skin from the infected sites of each group was aseptically collected, and an antibacterial rate was calculated.

[2] = tested on: Methicillin-sensitive Staphylococcus aureus (NRS 384); assay type: in vivo, ICR mice; settings: 0.1 mL twice a day for 4 days, mouse back skin infection
Method: as §1

[3] = tested on: Pseudomonas aeruginosa ATCC 27853; test: Injectable formulations on mice infected with peritonitis; assay type: in vivo, ICR mice; settings: twice a day for 3 days; for Number of mice that died on each day after infection: day 1 / Number of mice that died on each day after infection: day 2 / Number of mice that died on each day after infection: day 3 / Number of mice that died on each day after infection: day 4 / Number of mice that died on each day after infection: day 5 / Average survival times (Days): n = 10; for Average survival times (Days): observed for 14 d
Method in brief: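 Survival readout: deaths and survival time tracked for 14 d. Treatment was tail-vein injection by body weight, twice a day for 3 consecutive days, starting right after intraperitoneal challenge with 0.2 mL of 1×10^9 CFU/mL P. aeruginosa ATCC 27853 in male and female ICR mice.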

[4] = tested on: Salmonella typhimurium ATCC 14028; assay type: cell-based
Method in brief: (§2)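 Following CLSI standards, peptides are serially diluted twofold in a microdilution setup against each strain. The MIC is then recorded. The whole experiment is run five times in parallel.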

[5] = tested on: Escherichia coli ATCC 25922; assay type: cell-based
Method in brief: as §2

[6] = tested on: Serratia marcescens ATCC 29021; assay type: cell-based
Method in brief: as §2

[7] = tested on: Bacillus subtilis ATCC 6633; assay type: cell-based
Method in brief: as §2

[8] = tested on: Candida albicans ATCC MYA-2876; assay type: cell-based
Method in brief: as §2

[9] = tested on: Candida tropicalis ATCC 750; assay type: cell-based
Method in brief: as §2

Enterococcus ATCC 29212 = assay type: cell-based
Method in brief: as §2

[10] = tested on: Staphylococcus aureus ATCC 25923; assay type: cell-based
Method in brief: as §2

[11] = tested on: Klebsiella pneumoniae ATCC 700603; assay type: cell-based
Method in brief: as §2

[12] = tested on: Pseudomonas aeruginosa ATCC 27853; assay type: cell-based
Method in brief: as §2

Candida utilis ATCC 9950 = assay type: cell-based
Method in brief: as §2

Substance | Inhibition rate against Methicillin-resistant Staphylococcus aureus (%) ([1]; topical formulation 0.2 mg/mL) | Inhibition rate against Methicillin-resistant Staphylococcus aureus (%) ([1]; topical formulation 1 mg/mL) | Inhibition rate against Methicillin-resistant Staphylococcus aureus (%) ([1]; topical formulation 5 mg/mL) | Inhibition rate against Methicillin-sensitive Staphylococcus aureus (%) ([2]; topical formulation 0.2 mg/mL) | Inhibition rate against Methicillin-sensitive Staphylococcus aureus (%) ([2]; topical formulation 1 mg/mL) | Inhibition rate against Methicillin-sensitive Staphylococcus aureus (%) ([2]; topical formulation 5 mg/mL) | Number of mice that died on each day after infection: day 1 ([3]; 1 mg/kg via tail vein) | Number of mice that died on each day after infection: day 2 ([3]; 1 mg/kg via tail vein) | Number of mice that died on each day after infection: day 3 ([3]; 1 mg/kg via tail vein) | Number of mice that died on each day after infection: day 4 ([3]; 1 mg/kg via tail vein) | Number of mice that died on each day after infection: day 5 ([3]; 1 mg/kg via tail vein) | Average survival times (Days) ([3]; 1 mg/kg via tail vein) | MIC Salmonella typhimurium ATCC 14028 [4] | MIC Escherichia coli ATCC 25922 [5] | MIC Serratia marcescens ATCC 29021 [6] | MIC Bacillus subtilis ATCC 6633 [7] | MIC Candida albicans ATCC MYA-2876 [8] | MIC Candida tropicalis ATCC 750 [9] | MIC Enterococcus ATCC 29212 (Enterococcus ATCC 29212) | MIC Staphylococcus aureus ATCC 25923 [10] | other results
Ac-RKLLXRLKXRK-PEG200 [LV-26] (Ac-RKLL[2Nal]RLK[2Nal]RK-PEG200) [polyethylene glycol 200 conjugated to C-terminal; X=3-(2-naphthyl)-alanine] | 86.51% | 86.79% | 87.56% | 96.35% | 96.92% | 97.87% | 1 Mouse | 1 Mouse | 1 Mouse | 1 Mouse | 1 Mouse | 8.5** Days | 2 µg/mL | 2 µg/mL | 8 µg/mL | 4 µg/mL | 8 µg/mL | 8 µg/mL | 8 µg/mL | 1 µg/mL | MIC Klebsiella pneumoniae ATCC 700603 [11]: 4 µg/mL; MIC Pseudomonas aeruginosa ATCC 27853 [12]: 4 µg/mL; MIC Candida utilis ATCC 9950 (Candida utilis ATCC 9950): 16 µg/mL
Ac-RKLLXRLKXRK-PEG1000 [LV-28] (Ac-RKLL[2Nal]RLK[2Nal]RK-PEG1000) [polyethylene glycol 1000 conjugated to C-terminal; X=3-(2-naphthyl)-alanine] | 86.23% | 87.81% | 88.66% | 96.03% | 96.75% | 97.82% | 1 Mouse | 0 Mouse | 1 Mouse | 1 Mouse | 1 Mouse | 9.7*** Days | 4 µg/mL | 2 µg/mL | 8 µg/mL | 4 µg/mL | 8 µg/mL | 4 µg/mL | 8 µg/mL | 2 µg/mL | MIC Klebsiella pneumoniae ATCC 700603 [11]: 4 µg/mL; MIC Pseudomonas aeruginosa ATCC 27853 [12]: 2 µg/mL; MIC Candida utilis ATCC 9950 (Candida utilis ATCC 9950): 8 µg/mL
Ac-RKLLXRLKXRK-PEG500 [LV-27] (Ac-RKLL[2Nal]RLK[2Nal]RK-PEG500) [polyethylene glycol 500 conjugated to C-terminal; X=3-(2-naphthyl)-alanine] | 86.50% | 89.66% | 88.02% | 97.01% | 98.74% | 97.65% | 1 Mouse | 1 Mouse | 0 Mouse | 1 Mouse | 0 Mouse | 10.5**** Days | 2 µg/mL | 1 µg/mL | 4 µg/mL | 2 µg/mL | 8 µg/mL | 4 µg/mL | 2 µg/mL | 1 µg/mL | Number of mice that died on each day after infection: day 1 ([3]; 0.2 mg/kg via tail vein): 2 Mouse; Number of mice that died on each day after infection: day 2 ([3]; 0.2 mg/kg via tail vein): 2 Mouse; Number of mice that died on each day after infection: day 3 ([3]; 0.2 mg/kg via tail vein): 0 Mouse; Number of mice that died on each day after infection: day 4 ([3]; 0.2 mg/kg via tail vein): 1 Mouse; Number of mice that died on each day after infection: day 5 ([3]; 0.2 mg/kg via tail vein): 1 Mouse; Average survival times (Days) ([3]; 0.2 mg/kg via tail vein): 7.1** Days; Number of mice that died on each day after infection: day 1 ([3]; 5 mg/kg via tail vein): 0 Mouse; Number of mice that died on each day after infection: day 2 ([3]; 5 mg/kg via tail vein): 3 Mouse; Number of mice that died on each day after infection: day 3 ([3]; 5 mg/kg via tail vein): 0 Mouse; Number of mice that died on each day after infection: day 4 ([3]; 5 mg/kg via tail vein): 1 Mouse; Number of mice that died on each day after infection: day 5 ([3]; 5 mg/kg via tail vein): 0 Mouse; Average survival times (Days) ([3]; 5 mg/kg via tail vein): 9.4*** Days; survival time of mice infected with Pseudomonas aeruginosa ([3]; tail vein, observed 14 d): superior to those of the Levofloxacin group; MIC Klebsiella pneumoniae ATCC 700603 [11]: 8 µg/mL; MIC Pseudomonas aeruginosa ATCC 27853 [12]: 1 µg/mL; MIC Candida utilis ATCC 9950 (Candida utilis ATCC 9950): 16 µg/mL
